Assay results from patent publication US5145783A, “Glyphosate-tolerant 5-endolpyruvyl-3-phosphoshikimate synthase” (Monsanto Company, priority 1990, dated 1992).

What was measured:
[1] = system: Brassica napus calli transformed with pMON600; assay: Growth of pMON600-transformed calli on glyphosate; format: cell-based; details: 0.5 mM glyphosate, three gentamicin resistant calli
[2] = biological target: T1, Arabidopsis EPSP synthase with the alanine for glycine substitution at position 101 (Arabidopsis thaliana, UniProt P05466, G177A); assay: EPSP synthase activity in protein extracts of Brassica napus calli transformed with pMON600; format: biochemical
T1 construct: the expressed Arabidopsis EPSP synthase would include the alanine for glycine substitution at position 101 of the mature enzyme; expressed in transfected cells; host or cells: Brassica napus calli transformed by Agrobacterium harboring pMON600, protein extract
T1 sequence (P05466 77-520 G177A): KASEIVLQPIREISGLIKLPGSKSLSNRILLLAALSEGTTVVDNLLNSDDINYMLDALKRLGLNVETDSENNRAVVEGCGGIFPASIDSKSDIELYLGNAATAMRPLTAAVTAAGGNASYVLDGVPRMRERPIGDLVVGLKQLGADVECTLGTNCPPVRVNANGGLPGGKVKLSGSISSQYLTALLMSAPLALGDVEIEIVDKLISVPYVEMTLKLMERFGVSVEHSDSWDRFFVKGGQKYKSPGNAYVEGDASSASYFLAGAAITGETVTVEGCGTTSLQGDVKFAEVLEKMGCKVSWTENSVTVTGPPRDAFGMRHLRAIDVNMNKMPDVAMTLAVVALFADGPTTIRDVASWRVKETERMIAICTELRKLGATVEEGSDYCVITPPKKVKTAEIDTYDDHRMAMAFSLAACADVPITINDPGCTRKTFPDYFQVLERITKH
Description: The Agrobacterium harboring the pMON600 plasmid was used to transform explants of Brassica napus. Three gentamicin resistant calli were obtained. […] Proteins were extracted from samples of the calli and were assayed for EPSP synthase activity. All three of the calli contained EPSP synthase activity that was resistant to 0.5 mM glyphosate.
The EPSP synthase in the extracts was further characterized by titrating the resistance to glyphosate.

[3] = system: tobacco plants transformed with glyphosate-tolerant petunia EPSP synthase gene (pMON567); assay: Relative effect of glyphosate spray on transformed tobacco, glyphosate-tolerant gene; format: in vivo, Nicotiana tabacam CV H425; set-up: key: 0 = total kill, 10 = normal unsprayed plant; details: GT
Description: (§1) A culture of A. tumefaciens cells containing pMON567/pGV3111-SE was contacted with leaf disks taken from tobacco plants (Nicotiana tabacam CV H425) as described by Horsch (1985). The Agrobacterium cells inserted the mutant EPSP synthase gene into the chromosomes of the plant cells. Plant cells resistant to kanamycin were selected and regenerated into differentiated plants by the procedure of Horsch (1985).
Progeny of these plants were propagated and grown to a rosette diameter of about 10 cm corresponding to a plant age of about four weeks. […] […] The effect was translated to a numerical scale of 0-10 in which 0 represents total kill and 10 is the normal, unsprayed plant. […] The values represent the best transformant for both wild-type EPSP synthase and glyphosate-tolerant EPSP synthase genes.

[4] = biological target: petunia EPSP synthase with alanine for the first glycine of the conserved region (Petunia hybrida, UniProt P11043, G170A); assay: Glyphosate sensitivity of petunia EPSP synthase with alanine for the first glycine of the conserved region; format: biochemical; details: alanine inserted for the first glycine of the conserved region
Sequence of petunia EPSP synthase with alanine for the first glycine of the conserved region (P11043 73-516 G170A): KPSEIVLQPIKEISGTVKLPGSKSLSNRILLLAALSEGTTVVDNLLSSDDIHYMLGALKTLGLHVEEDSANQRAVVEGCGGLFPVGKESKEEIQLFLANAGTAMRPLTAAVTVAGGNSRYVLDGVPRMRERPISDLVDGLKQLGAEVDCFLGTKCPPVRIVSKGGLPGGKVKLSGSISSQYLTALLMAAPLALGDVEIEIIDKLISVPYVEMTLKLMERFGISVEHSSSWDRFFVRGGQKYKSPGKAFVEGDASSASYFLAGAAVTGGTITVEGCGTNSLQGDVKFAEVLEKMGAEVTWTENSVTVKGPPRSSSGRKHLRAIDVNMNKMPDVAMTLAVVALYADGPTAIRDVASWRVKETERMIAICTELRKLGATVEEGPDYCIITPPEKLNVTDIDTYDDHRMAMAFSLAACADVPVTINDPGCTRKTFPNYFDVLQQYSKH
Description: The EPSP synthase sequences shown in FIG. 2 represent a broad evolutionary range of source materials for EPSP synthases. […] However, those skilled in the art will recognize that a particular EPSP synthase may be produced by and isolated from another source material which may not have the exact sequence of the conserved region.

[5] = system: E coli 11303 SM-1; assay: Growth of mutant E. coli in medium containing glyphosate; format: cell-based; details: 10 mM or higher glyphosate in the growth medium
Description: Cells of E. coli ATCC 11303 were transferred to medium A and incubated at 37° C.
This mutant bacterium was designated E coli 11303 SM-1. The AroA gene encoding EPSP synthase from this mutant bacterium was isolated as follows.

[6] = system: tobacco plants transformed with wild-type EPSP synthase gene; assay: Relative effect of glyphosate spray on transformed tobacco, wild-type gene; format: in vivo, Nicotiana tabacam CV H425; set-up: key: 0 = total kill, 10 = normal unsprayed plant; details: WT
Description: as §1
Progeny of these plants were propagated and grown to a rosette diameter of about 10 cm corresponding to a plant age of about four weeks. The plants were sprayed with glyphosate at levels corresponding to 2.0 and 3.6 pounds acid equiv./acre. […] The effect was translated to a numerical scale of 0-10 in which 0 represents total kill and 10 is the normal, unsprayed plant. […] The values represent the best transformant for both wild-type EPSP synthase and glyphosate-tolerant EPSP synthase genes.

[7] = biological target: T2, wild-type EPSP synthase of tomato (Solanum lycopersicum, UniProt P10748); assay: EPSP synthase activity assay, extracts of E. coli SR481 harboring pMON9719; format: biochemical
T2 construct: ATG translational initiation codon at the site predicted to be the start of the mature enzyme for in vitro expression in E. Coli; initiator methionine (ATG in an engineered NcoI site) (N); made in house; host or cells: E. coli SR481 (aroA mutant) harboring pMON9719, desalted cell extract
T2 sequence (P10748 77-520): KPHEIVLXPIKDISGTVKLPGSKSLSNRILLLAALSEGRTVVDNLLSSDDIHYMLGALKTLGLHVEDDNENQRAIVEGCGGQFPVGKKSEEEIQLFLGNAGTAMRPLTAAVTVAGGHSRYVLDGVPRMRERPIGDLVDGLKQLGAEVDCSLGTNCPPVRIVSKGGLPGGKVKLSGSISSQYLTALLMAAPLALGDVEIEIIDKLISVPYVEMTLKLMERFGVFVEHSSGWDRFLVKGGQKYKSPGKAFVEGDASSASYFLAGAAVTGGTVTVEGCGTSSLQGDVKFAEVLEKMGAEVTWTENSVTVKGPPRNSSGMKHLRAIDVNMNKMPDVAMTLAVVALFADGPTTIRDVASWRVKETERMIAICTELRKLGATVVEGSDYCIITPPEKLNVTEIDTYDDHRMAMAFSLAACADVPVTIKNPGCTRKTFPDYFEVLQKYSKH
Description: E. coli SR481 cells harboring pMON9719 or pMON9729 were grown under conditions which induce the expression of the RecA promoter. The cells were lysed and the extracts were assayed for EPSP synthase activity.
Specifically, the bacterial cell paste was washed twice with 0.9% saline, suspended in buffer (100 mM Tris-HCl, 5 mM dithiothreitol, 1 mM EDTA, 10% glycerol and 1 mM benzamidine HCl) passed twice through the French Pressure Cell at 1000 psi. The cell abstract was separated from the cells by centrifuging at 15,000×gravity for 10 mins. at 5° C. It was desalted using Sephadex G-50 (Pharmacia, Piscataway, N.J.). The desalted extract was assayed for EPSP synthase activity as follows:
To an assay mix (40 μl) containing shikimate-3-phosphate (2 mM), ^14 C-phosphoenolpyruvate (1 mM, 1.2 mCi/mmol), ammonium molybdate (0.1 mM), potassium fluoride (5 mM), in 50 mM HEPES-KOH, pH 7, was added 10 μl of the extract and incubated at 25° C. for 2 mins. […] The radioactivity of the eluent was monitored using a Radiometric Flo-One Beta Instrument. […] The EPSP synthase activity was determined by measurement of the conversion of ^14 C-PEP to ^14 […], both of which are resolved under the above conditions of chromatography. The protein content of the extract was determined by the method of Bradford (Biorad Labs, Calif.). […]

[8] = 0.4 Pounds/Acre, Day 7, best transformant
[9] = 0.4 Pounds/Acre, Day 14, best transformant
[10] = 0.4 Pounds/Acre, Day 28, best transformant
[11] = 2.0 Pounds/Acre, Day 7, best transformant
[12] = 2.0 Pounds/Acre, Day 14, best transformant
[13] = 2.0 Pounds/Acre, Day 28, best transformant
[14] = 3.6 Pounds/Acre, Day 7, best transformant
[15] = 3.6 Pounds/Acre, Day 14, best transformant
[16] = 3.6 Pounds/Acre, Day 28, best transformant

O=C(O)CNCP(=O)(O)O [glyphosate, N-phosphonomethylglycine]
callus growth on glyphosate [1]: capable of growth | IC50 [2]: 7.5 mM | EPSP synthase activity in the presence of glyphosate ([2]; 0.5 mM glyphosate, all three calli): resistant | Relative effect of glyphosate (0 total kill, 10 no effect) [3, 8]: 8.0 | Relative effect of glyphosate (0 total kill, 10 no effect) [3, 9]: 8.0 | Relative effect of glyphosate (0 total kill, 10 no effect) [3, 10]: 9.0 | Relative effect of glyphosate (0 total kill, 10 no effect) [3, 11]: 8.0 | Relative effect of glyphosate (0 total kill, 10 no effect) [3, 12]: 8.3 | Relative effect of glyphosate (0 total kill, 10 no effect) [3, 13]: 7.0 | Relative effect of glyphosate (0 total kill, 10 no effect) [3, 14]: 5.0 | Relative effect of glyphosate (0 total kill, 10 no effect) [3, 15]: 7.4 | Relative effect of glyphosate (0 total kill, 10 no effect) [3, 16]: 7.0 | change in glyphosate sensitivity versus wild-type petunia EPSP synthase [4]: no attendant changes in glyphosate sensitivity | growth in the presence of glyphosate [5]: could grow rapidly | Relative effect of glyphosate (0 total kill, 10 no effect) [6, 8]: 6.0 | Relative effect of glyphosate (0 total kill, 10 no effect) [6, 9]: 7.0 | Relative effect of glyphosate (0 total kill, 10 no effect) [6, 10]: 9.0 | Relative effect of glyphosate (0 total kill, 10 no effect) [6, 11]: 5.0 | Relative effect of glyphosate (0 total kill, 10 no effect) [6, 12]: 1.8 | Relative effect of glyphosate (0 total kill, 10 no effect) [6, 13]: 0.8 | Relative effect of glyphosate (0 total kill, 10 no effect) [6, 14]: 5.0 | Relative effect of glyphosate (0 total kill, 10 no effect) [6, 15]: 1.7 | Relative effect of glyphosate (0 total kill, 10 no effect) [6, 16]: 0.8 | IC50 [7]: 0.012 mM
